This series can be described thus: method code SF-AS, from DOI: 10.1111/j.2042-7158.1993.tb07096.x, PMID: 7901370. The note with it: pH 7.4.

`CC(C)NC(=S)NS(=O)(=O)c1cnccc1NC1CCCCCCC1` returned a logD of 1.3.
Under `O=S(=O)(NC(=S)N1CCCCC1)c1cnccc1NC1CCCCCC1` stands 1.25; under `O=S(=O)(NC(=S)N1CCCCC1)c1cnccc1NC1CCCCC1`, 0.85; under `O=S(=O)(NC(=S)N1CCCCC1)c1cnccc1NC1CCCCCCC1`, 1.6.
Under `CCNC(=S)NS(=O)(=O)c1cnccc1NC1CCCCCCC1` stands 0.96.
Take `CCNC(=S)NS(=O)(=O)c1cnccc1NC1CCCCC1`: the logD was 0.2.
Under `O=S(=O)(NC(=S)NC1CCCCC1)c1cnccc1NC1CCCCCC1` stands 1.81; under `O=S(=O)(NC(=S)NC1CCCCC1)c1cnccc1NC1CCCCCCC1`, 2.14.

By logD is commonly meant lipophilicity at a set pH, counting ionised and neutral species. The low end stands for a more hydrophilic compound, the high end for a more lipophilic compound.

The values are drawn from the SangsterLogP compilation.
